According to patent US20090318465A1, “METHOD FOR IDENTIFYING COMPOUNDS THAT ACT AS INSULIN-SENSITIZERS” (priority 2006, published 2009):

What was measured:
3T3 L1 fibroblasts = experiment: Adipogenesis assay (phenotype-based primary screen); type: cell-based, mouse; settings: test compound 20 μg/ml plus 5 μg/ml insulin, 8 days
Experimental: The phenotype-based assay used for screening the test compounds in the first screening step is an adipogenesis assay. Any of a variety of adipogenesis assays can be employed. Suitable adipogenesis assays can employ fibroblasts 3T3-L1, which can be derived from mouse and insulin, for example, of either human, porcine or bovine origin. The test compounds can be dissolved at a suitable concentration (e.g., 20 μg/ml) in a suitable solvent such as DMSO. Fibroblasts can be grown in 96-well plates containing sufficient cells, for example 5×10^4 cells/well, that are cultured in nutrient medium along with 5 μg/ml of insulin. After 3 days of incubation in CO2 incubators at 37° C., the nutrient medium with compounds is removed and fresh medium is exposed to the cells. After 8 days, the ability of compounds to potentiate insulin effect on transformation into fat filled cells, adipocytes, was assessed by observing under an inverted microscope. The lipid droplets are stained with Oil red O and percentage of stained cells is determined (e.g., estimated).
Compounds that caused the formation of adipocytes by more than 5 times the vehicle are termed as actives.
The assay was designed as in the reference J. Bio. […]
At the end of 8 days, the number of fat filled adipocytes formed in each well was assessed by observing under microscope. […]

[1] = system: dexamethasone treated insulin resistant 3T3-L1 adipocytes; experiment: Insulin resistance assay (IR assay), 14C-2-deoxyglucose uptake; type: cell-based, mouse; settings: for % of Rosiglitazone (comparison with Rosiglitazone): test compound 10 μM/mL versus Rosiglitazone 0.1 μM; for Fold vehicle (fold activity over vehicle): test compound 10 μM/mL, glucose uptake with 200 nM insulin, vehicle = 1.0
Text: A suitable insulin resistance assay includes screening of compounds which act as insulin-sensitizers using chronically dexamethasone treated 3T3-L1 adipocytes as an in vitro model. This is a known model for studying insulin signaling and insulin resistance. Chronically dexamethasone treated 3T3-L1 adipocytes serve as a valid in vitro model of insulin resistance resembling diabetes patients.
In an embodiment, the method according to the present invention includes screening compounds identified as active in the phenotype-based assay against dexamethasone treated insulin resistant adipocytes. For example, the method can include applying actives from the insulin sensitivity assay at a concentration of 1-10 μM to the insulin resistant adipocytes for 1-4 days. The adipocytes were previously prepared for the assay by long term exposure to dexamethasone, for example, at 100 nM for about 24-48 hours.
The method can also include determining whether the compounds enhance glucose uptake in the insulin resistant adipocytes by more than 50% above that enhanced by insulin. The method can then include selecting compounds as active, if they caused 1.5 fold or more increase in glucose uptake compared to insulin treated adipocytes. Glucose uptake can be measured by any of a variety of known methods, such as measuring uptake of ^14C-labeled 2-deoxyglucose, a non metabolisable analogue of D-Glucose.
The assay was designed as in the reference, British Journal of Pharmacology, 130, 351-58, 2000, which is incorporated herein by reference for disclosure of the assay.
The solution of test compound (10 μM/mL) was prepared in DMSO.
Rosiglitazone (0.1 μM in DMSO) was used as standard.
Differentiation into adipocytes was induced by known methods as described below. (J. Biol. Chem., 260, 2646-2652, 1985, which is incorporated herein by reference for disclosure of the induction).
Culture medium containing […] 1-methyl-3-isobutylxanthine (IBMX), 0.25 μM dexamethasone, 5 μg/ml insulin (bovine/human), 10 mM HEPES buffer and fetal bovine serum (FBS) 10% by volume in Dulbecco's modified Eagle's medium (DMEM) was used for differentiation.
3T3 L1 fibroblasts were seeded in 24-well or 6-well plates at a density of 0.5-2×10^4 cells/well and were allowed to reach maximal confluency.
The confluent fibroblasts were exposed to culture medium for 2 days. After this period, fresh culture medium (DMEM) containing only insulin was used, 10% FBS was added and cultured for 4 days with change of medium every 2 days. After 7 days the cultures received DMEM containing 10% FBS with no exposure to insulin. By the end of 8-10 days, more than 95% of the cells have become differentiated into adipocytes.
The mature adipocytes were exposed to dexamethasone, 100 nM added in ethanol, in culture medium and incubated for 2 days. On the third day, solution of test compound was added along with 100 nM dexamethasone containing medium for 4 days with a change in medium after every 2 days. Vehicle control contained 1% v/v of DMSO. Rosiglitazone was used as a standard and was added at a concentration of 0.1 μM in DMSO, along with 100 nM dexamethasone containing medium for 4 days with a change in medium after every 2 days. After a total period of 6 days, the cells were processed for glucose uptake as follows.
The insulin resistant adipocytes were exposed to serum-free DMEM containing 0.1% bovine serum albumin for 3-4 hours at 37° C. in CO2 atmosphere. The test compound was also present during this period. After 3-4 hours, the medium was aspirated and replaced with Kreb's Ringer phosphate (KRP) buffer at pH 7.4 and with human/porcine insulin, 200 nM. The cells were incubated for 30 minutes at 37° C. At the end of 30 minutes, 0.05 or 0.1 μCi of ^14C-2-deoxyglucose was added to each well of either 24-well or 6-well plates respectively and was incubated for exactly 5 minutes. After exactly 5 minutes, the plates were transferred to ice trays and medium was rapidly aspirated. […]

db/db mice = experiment: Evaluation of lipid levels (dyslipidemia) in db/db mice; type: in vivo; settings: doses higher than 50 mpk oral bid, 15 days
Experimental: Body weight was measured daily. On day 15, the animals were deprived of food for 4 hours after the last dose administration. Blood was collected at the end of the 4-hour period using heparinised capillaries by a retro-orbital puncture. Plasma samples were analyzed for, triglyceride and cholesterol, using the autoanalyser.
The assay was designed as in the reference, Metabolism, 49 (1), 22-31, 2000, the disclosure of which is incorporated by reference for the teaching of the assay.
Seven groups of male db/db mice (8 animals per group) were used. […] Body weight was measured daily. On day 15, the animals were deprived of food for 4 hours after the last dose administration. Blood was collected at the end of the 4-hour period using heparinised capillaries by a retro-orbital puncture. Plasma samples were analyzed for glucose, triglyceride, cholesterol, using the autoanalyser.

[2] = system: genetically diabetic db/db BL/6J mice; experiment: Screening in db/db BL/6J mice, plasma glucose reduction; type: in vivo; settings: 150 mpk od, 10 days
Experimental: In an embodiment, the method includes selecting 6-8 weeks old male db/db mice based on blood glucose levels determined after withholding feed for four hours. For example, the method can employ animals with plasma glucose levels in a suitable range, such as 300-500 mg/dl. The selected mice can be orally dosed with test (lead) compound, for example, in 0.5% carboxy methyl cellulose (CMC) vehicle at a suitable frequency and for a suitable time, such as twice daily for 10 consecutive days. This embodiment of the method can include obtaining blood on, for example, day 5 and day 10, after withholding feed for four hours, and determining plasma glucose levels. These levels can be determined using enzymatic methods (e.g., Diasys kit, Germany) in an autoanalyser. Lead compounds are considered to be in vivo actives if they produce statistically significant fall in plasma glucose on day 10 compared to mice treated with 0.5% CMC vehicle. Rosiglitazone can be used as a standard at 5 mg per kg (mpk) bid for comparison with test compounds.
The protocol was designed as in references. • 1.
The screening of compounds was based on their ability to reduce the plasma glucose levels in genetically diabetic db/db BL/6J mice.
Male db/db mice (obtained from the Animal House of Nicholas Piramal Research Centre, Goregaon, Mumbai, India) were used for this study (body weight in the range of 30-40 g and age is 6-8 weeks) and were kept eight per cage in individually ventilated cages at controlled temperature (22±1° C.) and humidity (45±5%). Food and water were provided ad libitum during their laboratory stay, except for four hours fasting prior to blood sample collection. 12 hours light and dark cycle was followed during the whole study period.
After 4 hours fasting blood samples were collected from mice. Mice showing plasma glucose levels between 300 to 500 mg/dl were divided in groups (8-10 per group) such that the mean plasma glucose levels and variation within the group, for each group, is nearly same. After grouping, mice in respective groups received treatment with 0.5% CMC vehicle, standard compound or test compounds for 10 days. Rosiglitazone was used as a standard.
After 4 hours fasting, mice were anaesthetized using isoflurane (inhalation anesthetic), and blood samples were collected through the retro orbital plexus. Collected blood samples were centrifuged at 7000 rpm for 10 minutes at 4° C.; Separated plasma was used for estimation of plasma glucose using diagnostic kits (Diasys, Germany). Plasma glucose levels of treated groups were normalized with control group using the following formula, which accounted for the changes in control group.

Row | Structure (SMILES) | activity in adipogenesis assay (active = adipocytes more than 5 times the vehicle) (3T3 L1 fibroblasts) | activity in insulin resistance assay (cut off 1.5-fold of vehicle) ([1]; insulin resistant adipocytes, glucose uptake) | % of Rosiglitazone (comparison with Rosiglitazone) [1] | Fold vehicle (fold activity over vehicle) [1] | reduction in cholesterol levels (db/db mice) | Normalization with control (plasma glucose reduction) [2]
1 | CCOC(=O)c1ccc(C(=N)NC(=O)OC)cc1C [Compound 9, 4-(Imino-methoxycarbonylaminomethyl)-2-methyl-benzoic acid ethyl ester] | inactive | inactive | NIL | 1.01 ± 0.27 | – | –
2 | O=S(=O)(Nc1cnc(Oc2cc3ccccc3cn2)c(Cl)c1)c1ccc(Cl)cc1Cl [Compound 5, 2,4-Dichloro-N-[5-chloro-6-(isoquinolin-3-yloxy)pyridin-3-yl]-benzene sulfonamide] | – | – | 78.7 ± 3.5% | 2.41 ± 0.06 | 26% | 43.2 ± 15.7
